According to PMC11676667, “Pharmacokinetics of Oral Cannabinoid Δ8-Tetrahydrocannabivarin and Its Main Metabolites in Healthy Participants” (Pharmaceuticals, 2024):
Where two headings read alike, the source gives them in different places.

Assay: Plasma pharmacokinetics after single oral dose of Δ8-THCV in MCT oil (LC-MS/MS, non-compartmental analysis)
Type: in vivo, human
Conditions: for concentration at 0.5 h / concentration at 1 h / concentration at 2 h / concentration at 4 h / concentration at 6 h / concentration at 8 h / AUC(0-t) / Cmax / MRT / Tmax: human; for concentration at 0.5 h / concentration at 1 h / concentration at 2 h / concentration at 4 h / concentration at 6 h / concentration at 8 h: oral; for AUC(0-t) / Cmax / MRT / Tmax: po; for MRT: read-out: MRT (mean residence time)
Experimental: The study was a two-phase, dose-ranging, placebo-controlled trial in 21 healthy participants to assess the safety, tolerability, PK, and PD of an oral formulation of Δ8-THCV. A detailed description of the study was published elsewhere. The study product was a medium-chain triglyceride (MCT) oil oral formulation of Δ8-THCV at a concentration of 50 mg/mL. […] MCT oil was used as placebo.
Twenty-one participants were enrolled in the clinical study and plasma samples from 15 participants were sent to our laboratory for pharmacokinetic evaluation. Of these, 3 participants were enrolled in Phase 1, an unblinded, placebo-controlled, single ascending dose design and 12 were enrolled in Phase 2, a double-blind, randomized, placebo-controlled, within-participant crossover design. At each study session, participants received one of the following oral doses: placebo, 12.5 mg, 25 mg, 50 mg, 100 mg, and 200 mg of the aforementioned Δ8-THCV formulation in MCT. Study visits were separated by a washout period of a minimum of one week and maximum of 28 days. Participants entered the research facility the night before the session and received the study product in the morning after a standardized high-fat, high-calorie breakfast. PK blood samples included in this analysis were collected prior to dosing and 0.5, 1, 2, 4, 6, and 8 h after dose. Immediately following collection into K2EDTA tubes, blood samples were placed on wet ice, centrifuged, and plasma was immediately frozen at −80 °C until shipment to the bioanalytical laboratory (iC42 Clinical Research and Development, University of Colorado, Aurora, CO, USA) on dry ice.
Plasma samples were analyzed using a validated high-performance liquid chromatography–tandem mass spectrometry (LC-MS/MS) assay. The assay included Δ8-THCV and its main metabolites 11-OH-Δ8-THCV and Δ8-THCV-COOH, Δ9-THCV and its main metabolite Δ9-THCV-COOH, and Δ9-THC and Δ8-THC as well as their main metabolites (Figure 3). The complete list of analyzed compounds and a summary of the key performance parameters of the assay are presented in Appendix A and Table A1 and Table A2. […] For the PK analysis, concentrations below the lower limit of quantification were set to 0 ng/mL. PK parameters were calculated using non-compartmental analysis (Phoenix WinNonlin version 8.4., Certara, Princeton, NJ, USA). Statistical analysis was carried out using GraphPad Prism (version 10, Boston, MA, USA).

[1] = plasma, 100 mg, 100 mg Δ8-THCV dose, Median (IQ Range)
[2] = plasma, 100 mg, 100 mg Δ8-THCV dose, Mean (SD, %CV)
[3] = plasma, 200 mg, 200 mg Δ8-THCV dose, Mean (SD, %CV)
[4] = plasma, 200 mg, 200 mg Δ8-THCV dose, Median (IQ Range)
[5] = plasma, 12.5 mg, 12.5 mg single oral Δ8-THCV in MCT oil, Mean (±SD)
[6] = plasma, 12.5 mg, 12.5 mg single oral Δ8-THCV in MCT oil, Median (Range)
[7] = plasma, 25 mg, 25 mg single oral Δ8-THCV in MCT oil, Mean (±SD)
[8] = plasma, 25 mg, 25 mg single oral Δ8-THCV in MCT oil, Median (Range)
[9] = plasma, 50 mg, 50 mg single oral Δ8-THCV in MCT oil, Mean (±SD)
[10] = plasma, 50 mg, 50 mg single oral Δ8-THCV in MCT oil, Median (Range)
[11] = plasma, 100 mg, 100 mg single oral Δ8-THCV in MCT oil, Mean (±SD)
[12] = plasma, 100 mg, 100 mg single oral Δ8-THCV in MCT oil, Median (Range)
[13] = plasma, 200 mg, 200 mg single oral Δ8-THCV in MCT oil, Mean (±SD)
[14] = plasma, 200 mg, 200 mg single oral Δ8-THCV in MCT oil, Median (Range)

**Q.** What does the source list for `CCCc1cc(O)c2c(c1)OC(C)(C)[C@@H]1CC=C(C(=O)O)C[C@@H]21` [Δ8-THCV-COOH, 11-nor-9-carboxy-Δ8-THCV]?
**A.** concentration at 0.5 h [1]: 1.7 ng/mL; concentration at 1 h [2]: 202 ng/mL; concentration at 1 h [1]: 79.5 ng/mL; concentration at 2 h [2]: 306 ng/mL; concentration at 2 h [1]: 275 ng/mL; concentration at 4 h [2]: 556 ng/mL; concentration at 4 h [1]: 547 ng/mL; concentration at 6 h [2]: 512 ng/mL; concentration at 6 h [1]: 497 ng/mL; concentration at 8 h [2]: 319 ng/mL; concentration at 8 h [1]: 304 ng/mL; concentration at 0.5 h [3]: 5.6 ng/mL; concentration at 0.5 h [4]: 0 ng/mL; concentration at 1 h [3]: 158 ng/mL; concentration at 1 h [4]: 108 ng/mL; concentration at 2 h [3]: 653 ng/mL; concentration at 2 h [4]: 319 ng/mL; concentration at 4 h [3]: 1300 ng/mL; concentration at 4 h [4]: 1110 ng/mL; concentration at 6 h [3]: 1170 ng/mL; concentration at 6 h [4]: 1020 ng/mL; concentration at 8 h [3]: 917 ng/mL; concentration at 8 h [4]: 855 ng/mL; AUC(0-t) [5]: 398 ng·h/mL; Cmax [5]: 99 ng/mL; AUC(0-t) [6]: 331 ng·h/mL; Cmax [6]: 101 ng/mL; MRT (plasma, 12.5 mg, 12.5 mg single oral Δ8-THCV in MCT oil, plasma, Mean (±SD)): 4.9 h; Tmax (plasma, 12.5 mg, 12.5 mg single oral Δ8-THCV in MCT oil, plasma, Mean (±SD), read-out: tmax): 4.9 h; MRT (plasma, 12.5 mg, 12.5 mg single oral Δ8-THCV in MCT oil, plasma, Median (Range)): 4.9 h; Tmax (plasma, 12.5 mg, 12.5 mg single oral Δ8-THCV in MCT oil, plasma, Median (Range), read-out: tmax): 4 h; AUC(0-t) [7]: 642 ng·h/mL; Cmax [7]: 151 ng/mL; AUC(0-t) [8]: 574 ng·h/mL; Cmax [8]: 116 ng/mL; MRT (plasma, 25 mg, 25 mg single oral Δ8-THCV in MCT oil, plasma, Mean (±SD)): 4.8 h; Tmax (plasma, 25 mg, 25 mg single oral Δ8-THCV in MCT oil, plasma, Mean (±SD), read-out: tmax): 4.6 h; MRT (plasma, 25 mg, 25 mg single oral Δ8-THCV in MCT oil, plasma, Median (Range)): 4.6 h; Tmax (plasma, 25 mg, 25 mg single oral Δ8-THCV in MCT oil, plasma, Median (Range), read-out: tmax): 4 h; AUC(0-t) [9]: 1210 ng·h/mL; Cmax [9]: 324 ng/mL; AUC(0-t) [10]: 1090 ng·h/mL; Cmax [10]: 275 ng/mL; MRT (plasma, 50 mg, 50 mg single oral Δ8-THCV in MCT oil, plasma, Mean (±SD)): 5.3 h; Tmax (plasma, 50 mg, 50 mg single oral Δ8-THCV in MCT oil, plasma, Mean (±SD), read-out: tmax): 5.3 h; MRT (plasma, 50 mg, 50 mg single oral Δ8-THCV in MCT oil, plasma, Median (Range)): 5.3 h; Tmax (plasma, 50 mg, 50 mg single oral Δ8-THCV in MCT oil, plasma, Median (Range), read-out: tmax): 6 h; AUC(0-t) [11]: 3070 ng·h/mL; Cmax [11]: 756 ng/mL; AUC(0-t) [12]: 3130 ng·h/mL; Cmax [12]: 699 ng/mL; MRT (plasma, 100 mg, 100 mg single oral Δ8-THCV in MCT oil, plasma, Mean (±SD)): 4.8 h; Tmax (plasma, 100 mg, 100 mg single oral Δ8-THCV in MCT oil, plasma, Mean (±SD), read-out: tmax): 4.7 h; MRT (plasma, 100 mg, 100 mg single oral Δ8-THCV in MCT oil, plasma, Median (Range)): 4.6 h; Tmax (plasma, 100 mg, 100 mg single oral Δ8-THCV in MCT oil, plasma, Median (Range), read-out: tmax): 4 h; AUC(0-t) [13]: 6960 ng·h/mL; Cmax [13]: 1740 ng/mL; AUC(0-t) [14]: 6000 ng·h/mL; Cmax [14]: 1900 ng/mL; MRT (plasma, 200 mg, 200 mg single oral Δ8-THCV in MCT oil, plasma, Mean (±SD)): 5.1 h; Tmax (plasma, 200 mg, 200 mg single oral Δ8-THCV in MCT oil, plasma, Mean (±SD), read-out: tmax): 5.3 h; MRT (plasma, 200 mg, 200 mg single oral Δ8-THCV in MCT oil, plasma, Median (Range)): 5.1 h; Tmax (plasma, 200 mg, 200 mg single oral Δ8-THCV in MCT oil, plasma, Median (Range), read-out: tmax): 6 h; Tmax (plasma, across oral Δ8-THCV doses 12.5-200 mg, plasma, read-out: median time-to-maximum concentration (tmax), range across doses): 4.6 to 5.3 h; number of positive plasma samples (of 504 plasma samples from 15 participants after oral Δ8-THCV): 381; concentration in representative plasma sample (one subject after oral Δ8-THCV in MCT oil, Figure A1): 1026 ng/mL; median systemic exposure (plasma AUClast) relative to parent compound (oral Δ8-THCV): 36 fold; plasma concentration relative to Δ8-THCV, on average at each timepoint (oral Δ8-THCV): 10 fold; increase of median AUClast every two-fold increase in the dose (oral Δ8-THCV 12.5-200 mg, plasma): 1.7- to 2.9 fold
